Molecules are shown by their SMILES. pIC50: −log10 of the molar value.

Assay [1] has as its target T1, full-length MALT1 protein (Strep-MALT1(1-824)-His) (Homo sapiens, UniProt Q9UDY8).
T1 construct: full-length MALT1 protein (Strep-MALT1(1-824)-His) purified from baculovirus-infected insect cells; Strep (N); His (C); made in house; host or cells: baculovirus-infected insect cells
T1 sequence (Q9UDY8 1-824): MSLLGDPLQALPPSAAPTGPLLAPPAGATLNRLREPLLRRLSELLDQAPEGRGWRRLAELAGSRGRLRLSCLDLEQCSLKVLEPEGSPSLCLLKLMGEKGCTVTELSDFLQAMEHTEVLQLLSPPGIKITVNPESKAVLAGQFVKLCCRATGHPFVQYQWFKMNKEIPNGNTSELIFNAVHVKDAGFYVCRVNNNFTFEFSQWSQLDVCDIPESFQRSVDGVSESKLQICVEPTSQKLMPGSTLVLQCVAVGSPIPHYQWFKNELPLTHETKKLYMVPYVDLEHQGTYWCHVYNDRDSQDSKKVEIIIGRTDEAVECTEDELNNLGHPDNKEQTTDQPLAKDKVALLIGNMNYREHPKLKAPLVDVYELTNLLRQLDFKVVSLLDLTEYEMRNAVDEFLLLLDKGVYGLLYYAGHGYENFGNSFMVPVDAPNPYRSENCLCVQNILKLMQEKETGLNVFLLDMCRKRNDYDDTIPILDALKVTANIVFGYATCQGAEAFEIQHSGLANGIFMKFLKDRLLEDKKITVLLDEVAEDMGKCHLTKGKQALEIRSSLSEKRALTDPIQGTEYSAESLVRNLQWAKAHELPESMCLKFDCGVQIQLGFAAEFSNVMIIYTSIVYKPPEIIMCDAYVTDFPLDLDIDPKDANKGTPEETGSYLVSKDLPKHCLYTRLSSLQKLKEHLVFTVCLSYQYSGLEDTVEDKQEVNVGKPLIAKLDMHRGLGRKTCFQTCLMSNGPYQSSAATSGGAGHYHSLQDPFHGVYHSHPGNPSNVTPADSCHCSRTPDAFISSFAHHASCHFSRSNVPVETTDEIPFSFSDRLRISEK
As to the kind of experiment: MALT1 Biochemical Protease Assay. To be noted: 10 nM FL MALT1, 200 μM Ac-LRSR-AMC, 50 min pre-incubation, 4 h at RT; read-out: MALT1_Biochemical activity (Ac-LRSR-amc) IC50. The protocol: MALT1 protease activity was assessed in an in vitro assay using a tetrapeptide as substrate and full-length MALT1 protein (Strep-MALT1(1-824)-His) purified from baculovirus-infected insect cells. The tetrapeptide LRSR is coupled to AMC (7-amino-4-methylcoumarin) and provides a quenched, fluorescent substrate for the MALT1 protease (SM Biochemicals). Cleavage of AMC from the Arginine residue results in an increase in coumarin fluorescence measured at 460 nm (excitation 355 nm). The final assay buffer consisted of 10 nM FL MALT1 protein, 200 μM Ac-LRSR-AMC, 50 mM Tris pH 7.5, 0.6 M Citrate, 1 mM DTT, 1 mM EDTA, 0.05% BSA and 1.5% DMSO. Test compounds were spotted at 50 nL in 100% DMSO per well of a black 384-Proxiplate (Perkin Elmer). Test compound concentrations ranged from 30 μM to 0.5 nM using 11 dilution steps (1:3). Background signal was measured from control wells containing assay buffer without enzyme which functions as low control (LC). High control (HC) values were generated using the reaction with enzyme but no compound treatment. Compounds were pre-incubated with MALT1 enzyme for 50 minutes at RT. Substrate was added subsequently and fluorescence was measured in Labsystems fluoroskan at excitation 355 nm and emission 460 nm to determine time 0. The reaction was subsequently incubated for 4 h at RT and fluorescence was measured. For IC50 calculations, timepoint 0 was subtracted from the 4 h timepoint to correct for any potential autofluorescence of the compounds. The enzyme reaction was linear during the 4 h incubation period. Characterization of the substrate Ac-LRSR-AMC determined the Michaelis constant KM at 200 μM.
IC50 values were calculated using the following formula (Z prime should be >0.5): […]
A best-fit curve was fitted by a minimum sum of squares method to the plot of % Controlmin vs. compound concentration. From this an IC50 value (inhibitory concentration causing 50% inhibition) can be obtained. An estimate of the slope of the plot in terms of the Hill coefficient was also obtained.
Used in “Lexis Dose Response Curve Fitting” Version 1.0.

Assay [2] relates to secretion of IL6 by OCI-LY3 ABC-DLBCL cells. As to the kind of experiment: Human IL6 Mesoscale assay (OCI-LY3). The class given is cell-based. The note with it: 24 h incubation, IL6 in supernatant. As for the experimental part: (§1) NFKB signaling regulates the secretion of multiple cytokines, including IL6 and IL10. Secretion of the cytokines IL6 and IL10 by OCI-LY3 ABC-DLBCL cells was measured using a mesoscale assay. Inhibition of NFKB signaling by MALT1 inhibitors results in a decrease of IL6/10 secretion.
(§2) OCI-LY3 cells were propagated in RPMI-1640 (Sigma Aldrich) supplemented with 10% fetal bovine serum (HyClone), 1 mM sodium pyruvate (Invitrogen), 2 mM L-glutamine (Sigma Aldrich) and 1% PenStrep (Sigma Aldrich). Cell passage number should not exceed 30. Cells should be kept between 0.5-2.5 million cells per mL during culturing and cells should be supplemented every 2-3 days with fresh 50 μM beta-mercaptoethanol. No beta-mercaptoethanol was used during the mesoscale assay.
(§3) For the Mesoscale assay, 100,000 OCI-LY3 cells were seeded per well into black-colored 96-well plates with clear bottom (Corning #3904) and test compounds were added in 9 dilution steps (1:2) ranging from 15 μM to 58.6 nM (final DMSO concentration 0.3%). DMSO control wells were used to determine the maximum signal (High Control (HC)). Treatment with the BTK inhibitor RN486 in a dose range from 30 nM to […] (9 dilutions of 1:2) served as a positive control for NFKB pathway inhibition and was used to determine the maximum inhibition (Low Control (LC)). Compounds and cells were incubated for 24 h at 37° C. and 5% CO2 (assay volume is 150 μL). After 24 h of incubation 50 μL of the supernatant was transferred to a MSD plate (V-Plex Proinflammation Panel 1 (human) kit, Mesoscale (MSD)) and incubated for 2 h with vigorous shaking (600 rpm) at room temperature. Following incubation, plates were washed 3× with PBS+0.05% Tween-20 and 25 μL detection antibody solution (IL6 & IL10 antibodies in diluent 3 (MSD)) was added per well followed by 2 h of incubation with vigorous shaking (600 rpm) at room temperature. After 3× washes with PBS+0.05% Tween-20, plates were incubated with 150 μL 2× Read Buffer T and read on SECTOR imager.

Assay [3] relates to secretion of IL10 by OCI-LY3 ABC-DLBCL cells. As to the kind of experiment: Human IL10 Mesoscale assay (OCI-LY3). The class given is cell-based. To be noted: 24 h incubation, IL10 in supernatant. The protocol:
as §1, §2, §3

Take `COC(C)c1c(NC(=O)Nc2cnc(-n3nccn3)c(Cl)c2)cncc1OC1CC1` (racemic) [Co. 13]: the pIC50 (in general, the IC50 on a negative log10 scale, so that one unit is a factor of ten) in assay [1] was 6.07.
Take `CCOC(=O)COc1cncc(NC(=O)Nc2cnc(-n3nccn3)c(Cl)c2)c1C(C)OC` (racemic) [Co. 14]: the pIC50 in assay [1] was 5.49; in assay [2] it was 4.96; in assay [3] it was 5.09.
For `COC(C)c1c(C)cncc1NC(=O)Nc1cnc(-n2nccn2)c(Cl)c1` (racemic) [Co. 20] the same measures were 5.38, less than 5.52 and less than 5.52.
As for `COC(C)c1c(F)cncc1NC(=O)Nc1cnc(-n2nccn2)c(Cl)c1` (racemic) [Co. 21], the pIC50 in assay [1] is 5.58.
Turning to `COC(C)c1c(NC(=O)Nc2cnc(-n3nccn3)c(Cl)c2)cncc1C1CC1` (racemic) [Co. 28], the pIC50 in assay [1] was 6.22; in assay [2], 5.71; in assay [3], 5.96.
For `C=C(C)c1cncc(NC(=O)Nc2cnc(-n3nccn3)c(Cl)c2)c1C(C)OC` (racemic) [Co. 29] the same measures were 6.01, 5.74 and 5.75.
Regarding `COC(C)c1c(NC(=O)Nc2cnc(-n3nccn3)c(Cl)c2)cncc1C(C)C` (racemic) [Co. 30], the pIC50 in assay [1] was 5.67.
On the same count and under the same terms, under `COC(C)c1c(NC(=O)Nc2cnc(-n3nccn3)c(Cl)c2)cncc1C1COC1` (racemic) [Co. 31] stands 5.91; under `CNc1cncc(NC(=O)Nc2cnc(-n3nccn3)c(Cl)c2)c1C(C)OC` (racemic) [Co. 33], 5.74.
Regarding `COC(C)c1c(NC(=O)Nc2cnc(-n3nccn3)c(Cl)c2)cncc1C(N)=O` (racemic) [Co. 39], the pIC50 in assay [1] was 5.06; in assay [2] it was less than 4.82; in assay [3], 4.85.
For `COC(C)c1c(Br)c(C)nc(C)c1NC(=O)Nc1cnc(-n2nccn2)c(Cl)c1` (racemic) [Co. 49] the same measures were 6.21, 5.63 and 5.77.
As for `COC(C)c1c(Br)cnc(C)c1NC(=O)Nc1cnc(-n2nccn2)c(Cl)c1` (racemic) [Co. 50], in assay [1], the pIC50 is 5.13.
As to `COC(C)c1cc(C)ncc1NC(=O)Nc1cnc(-n2nccn2)c(Cl)c1` (racemic) [Co. 106], the pIC50 in assay [1] is 5.04; in assay [2], 5.14; in assay [3] it was 5.24.
The matching figures for `COC(C)c1c(Br)cncc1NC(=O)Nc1cnc(-n2nccn2)c(Cl)c1` (single isomer, unassigned) [Co. 18]: 7.00, 7.00 and 6.72.
As to `COC(C)c1c(Br)cncc1NC(=O)Nc1cnc(-n2nccn2)c(Cl)c1` (single isomer, unassigned) [Co. 19], the pIC50 in assay [1] was 5.56.
For the compound `COC(C)c1c(NC(=O)Nc2cnc(-n3nccn3)c(C(F)(F)F)c2)cnc(C)c1Br` (single isomer, unassigned) [Co. 59], the pIC50 in assay [1] was 8.00; in assay [2] it was 7.00; in assay [3] it was 7.15.
Turning to `COC(C)c1c(NC(=O)Nc2ccnc(C(F)(F)F)c2)cnc(C)c1Cl` (single isomer, unassigned) [Co. 65], the negative-log IC50 (pIC50) in assay [1] was 4.82; in assay [2] it was less than 4.82; in assay [3], 5.18.
For `COC(C)c1c(NC(=O)Nc2cnc(C3CC3)c(C(F)(F)F)c2)cnc(C)c1Cl` (single isomer, unassigned) [Co. 68] the same measures were less than 4.52, less than 4.82 and less than 4.82.
The matching figures for `COc1ncc(NC(=O)Nc2cnc(C)c(Br)c2C(C)OC)cc1C#N` (single isomer, unassigned) [Co. 98]: 5.23, 5.24 and 5.59.
For `CO[C@@H](C)c1c(NC(=O)Nc2cnc(OC(F)F)c(Cl)c2)cnc(N)c1Cl` (single isomer, unassigned) [Co. 135], in assay [1], the pIC50 is 5.70.
Still for that read-out and setting: under `CO[C@@H](C)c1c(NC(=O)Nc2cnc(-n3nccn3)c(Cl)c2)cncc1OCc1ccccc1` [Co. 2] stands 5.62; under `COC(C)c1c(NC(=O)Nc2cnc(-n3nccn3)c(Cl)c2)cncc1OCc1ccccc1` (stereo not shown) [Co. 3], less than 4.52.
Regarding `CO[C@@H](C)c1c(O)cncc1NC(=O)Nc1cnc(-n2nccn2)c(Cl)c1` [Co. 5], in assay [1], the pIC50 is 5.58.
The same measure, in the same setting: as for `COC(C)c1c(O)cncc1NC(=O)Nc1cnc(-n2nccn2)c(Cl)c1` (stereo not shown) [Co. 6], the figure is 4.62.
With `COc1cncc(NC(=O)Nc2cnc(-n3nccn3)c(Cl)c2)c1C(C)OC` (stereo not shown) [Co. 7], the pIC50 in assay [1] was 6.77.
On the same count and under the same terms, as for `CO[C@@H](C)c1c(NC(=O)Nc2cnc(-n3nccn3)c(Cl)c2)cncc1OC(C)C` [Co. 10], the figure is 5.52.
`COC(C)c1c(NC(=O)Nc2cnc(-n3nccn3)c(Cl)c2)cncc1OCC1CC1` (stereo not shown) [Co. 11]: the pIC50 in assay [1] was 5.76.
On the same count and under the same terms, under `COC(C)c1c(NC(=O)Nc2cnc(-n3nccn3)c(Cl)c2)cncc1OC1COC1` (stereo not shown) [Co. 12] stands 5.77; under `COC(C)c1c(NC(=O)Nc2cnc(-n3nccn3)c(Cl)c2)cncc1OCC(N)=O` (stereo not shown) [Co. 16], 5.85.
On the same count and under the same terms, under `COC(C)c1c(NC(=O)Nc2cnc(-n3nccn3)c(Cl)c2)cncc1NC(C)C` (stereo not shown) [Co. 32] stands 5.55; under `COC(C)c1c(NC(=O)Nc2cnc(-n3nccn3)c(Cl)c2)cnc(C2CC2)c1Br` (stereo not shown) [Co. 47], 5.06; under `COC(C)c1c(Br)cnc(C2CC2)c1NC(=O)Nc1cnc(-n2nccn2)c(Cl)c1` (stereo not shown) [Co. 48], less than 4.52.
On to `CO[C@H](C)c1c(NC(=O)Nc2cnc(OC(F)F)c(Cl)c2)cnc(C)c1C#N` [Co. 71], for which the negative logarithm of the IC50 (pIC50) in assay [2] was 6.49; in assay [3] it was 6.82.

These data come from patent publication US12404260B2, “Pyridine rings containing derivatives as MALT1 inhibitors” (Janssen Pharmaceutica NV, priority 2019, dated 2025).
